Tests used:
[1] = system: ACoAT promoter-β-galactosidase reporter gene in yeast strain MEY133::pACoAT (sterol biosynthesis); assay: Reporter gene (β-galactosidase) induction assay in reporter yeast strain; type: cell-based, S. cerevisiae; details: for concentration above which reporter gene activity is induced: 24 hours at 30° C.; for reporter gene induction per cell: relative to basal
Experimental: Reporter gene induction is defined as:
where f refers to a final reading, and i to an initial reading. 100 to a concentration of 100 μg/ml and 10 to a concentration of 10 ng/ml. Reporter gene induction per cell is defined as: […]
(§1) Reporter gene activity assays (β-galactosidase assays) were performed using a single step procedure with the substrate chlorophenol red-β-D-galactopyranoside (CPRG, Boehringer): this substrate gives rise to a red product when cleaved by β-galactosidase. The appearance of this product can assessed by monitoring the optical density at 570 nm (OD570). The assays were performed in the wells of microtitre plates containing 200 μi of yeast in uracil-deficient medium. 50 μl of reaction mix was added to these wells, and immediately after this the absorption at 570 nm was measured using a Molecular Devices plate reader. Reaction mix was prepared as follows. 10×Z buffer (Ausabel et al) was prepared by dissolving 85.2 g Na2HPO4, 62.4 g NaH2PO4.2H2O, 7.5 g KCl and 2.46 g MgSO4.7H2O in 500 mls water. 2.7 mls β-mercaptoethanol was added to this solution and mixed. The pH was adjusted to pH 7 using 5M NaOH and the volume made up to 1 litre with water. 200 mls of reaction buffer was made by mixing 100 mls 10×Z buffer, 1.0 ml of 20% (w/v) sodium docedyl sulphate, 10 mls 50 mM CPRG and 89 mls water. After 2 hours a final OD570 reading was taken. Over this time frame, using the yeast strains descibed below, the rate of change of OD570 was constant. Therefore OD570final minus OD570 initial is taken as a measure of total reporter gene activity. OD570 initial is taken as a measurement of the number of cells in the culture, and reporter gene activity per cell is calculated as […].
Maximal induction of reporter gene activity by terbinafine in MEY133::pACoAT was obtained by:
(1) thawing a 1 ml aliquot of frozen stock and adding it to 100 ml of uracil deficient medium in a 500 ml conical flask and incubating for 24 hours at 30° C. with agitation to aerate the culture.
(2) diluting a sample of this culture with uracil deficient medium to give 100 mls of a culture with an optical density at 600 nm of 1.0 units, and incubating this culture for a further 24 hours in an incubator at 30° C. with agitation.
(§2) (3) diluting a sample of this culture with uracil deficient medium to give a culture with an optical density at 600 nm of 0.35 units. This culture was dispensed into 96 well flat-bottomed mucrotitre plates containing compounds. Each well contained 20 μl compound dissolved in 10% (v/v) dimethylsulphoxide. 180 μl culture was added each well. The plates were sealed with Titertex plate sealers and incubated for 24 hours at 30° C.
(§3) (4) The plates were removed from the incubator, and shaken to resuspend the yeast. The platesealers were removed and […] reaction mix added to each well. An initial OD570 reading was taken immediately following this addition. After a further two hours a final OD570 reading was taken. Optical density readings were taken with a Molecular Devices platereader using Softmax software. The machine was set to automatically agitate the samples before taking the reading.
(§4) The reporter gene in the yeast strain MEY133::ACoAT is induced by a range of sterol biosynthesis inhibitor. FIGS. 2-10 present dose-responses to nine different sterol biosynthesis inhibitors. The measurements of reporter gene activity and growth were obtained using the standard procedure described above. Each point on the graph is the average of three measurements, standard deviations being indicated by the error bars. In the absence of sterol biosynthesis inhibitors, a basal activity of the reporter gene is observed. This corresponds to a change in OD570 of 0.23 units/two hours (average of 15 measurements). During the period of time of the incubation the yeast cells grow to a density of 0.86 OD570 units (average of 15 measurements).

[2] = system: ACoAT promoter-β-galactosidase reporter gene in yeast strain MEY133::pACoAT (sterol biosynthesis); assay: as above; type: cell-based, S. cerevisiae
[3] = system: yeast strain MEY133::pACoAT; assay: Growth of reporter yeast strain (OD570); type: cell-based, S. cerevisiae; details: OD570, 24 hours incubation
Experimental: Reporter gene activity (OD570final−OD570initial) is indicated by solid squares. Growth (OD570 final) is indicated by open squares. Each point is the average of three measurements. Error bars indicate standard deviations.
as §1, §2, §3, §4

Squalene synthase = details: S. cerevisiae, application of inhibitor; cited from earlier work
[4] = system: lanosterol 14-a-demethylase gene induction; details: HMG1-deleted yeast; cited from earlier work

Compound	reporter gene activity response (in words) ([1]; MEY133::pACoAT)	concentration above which reporter gene activity is induced ([1]; MEY133::pACoAT, dose-response)	growth inhibition (in words) [3]	other results
CCCCCCN1CCCC(Cc2ccc(C(C)(C)C)cc2)C1 (centres unmarked) [3-(4-t-butylbenzyl)-(N-hexyl)-piperidine]	very sharp	above 10 μg/ml		
CN(Cc1ccc(C(C)(C)C)cc1)Cc1cccc2ccccc12 [4-t-butyl-N-methyl-N-(I-naphthylmethyl)benzylamine]				reporter gene induction compared with terbinafine ([2]; at 10 μg/ml): much less active than terbinafine; reporter gene induction compared with terbinafine ([1]; at 100 μg/ml): to the same extent as terbinafine
Nc1nc(=O)[nH]cc1F [5-flucytosine]	do not induce reporter gene activity			
CCC(C)(C)c1ccc(CC(C)CN2C[C@@H](C)O[C@@H](C)C2)cc1 (some centres unmarked) [Amorolfine]		above 1 μg/ml	some growth inhibitory properties	
CC(Cc1ccc(C(C)(C)C)cc1)CN1C[C@@H](C)O[C@@H](C)C1 (some centres unmarked) [Fenpropimorph]	induces reporter gene activity		inhibiting growth to some extent	
OC(Cn1cncn1)(c1ccc(F)cc1)c1ccccc1F (centres unmarked) [Flutriafol]			Some growth inhibition	concentration at which detectable reporter gene induction occurs ([1]; MEY133::pACoAT, dose-response): 0.1 µg/mL
CC[C@H](C)C(=O)O[C@H]1C[C@@H](C)C=C2C=C[C@H](C)[C@H](CC[C@@H]3C[C@@H](O)CC(=O)O3)[C@H]21 [Lovastatin]		above 1 μg/ml		increase of squalene synthase levels (Squalene synthase): 2-3 fold; reporter gene induction per cell [1]: 5 fold
C=C(CC[C@]12O[C@H](C(=O)O)[C@@](O)(C(=O)O)[C@](C(=O)O)(O1)[C@H](OC(=O)/C=C/[C@@H](C)C[C@@H](C)CC)[C@H]2O)[C@@H](OC(C)=O)[C@H](C)Cc1ccccc1 [Squalestatin]	biphasic response		growth inhibitory effect of squalestatin at higher concentrations	reporter gene activity per cell, comparison of concentrations ([2]; 10 μg/ml versus 100 μg/ml): almost identical; concentration of maximal reporter gene induction ([1]; MEY133::pACoAT, dose-response): 10 µg/mL
CN(C/C=C/C#CC(C)(C)C)Cc1cccc2ccccc12 [Terbinafine]		above 1 μg/ml	inhibits growth to a limited extent	reporter gene induction per cell [1]: 9 fold
C[C@@H]1[C@H](O)[C@@H](C)/C=C/C=C/C=C/C=C/C=C/C=C/C=C/[C@H](O[C@@H]2O[C@H](C)[C@@H](O)[C@H](N)[C@@H]2O)C[C@@H]2O[C@](O)(C[C@@H](O)C[C@@H](O)[C@H](O)CC[C@@H](O)C[C@@H](O)CC(=O)O[C@H]1C)C[C@H](O)[C@H]2C(=O)O [amphotericin B]	do not induce reporter gene activity			
Cc1cccc(N(C)C(=S)Oc2ccc3ccccc3c2)c1 [tolnaftate]				detection in Kirsch screen [4]: not detected
